According to BindingDB's records for doi:10.1021/jm0301787 (Roche Palo Alto, 2003):

Molecular target: Mitogen-activated protein kinase 14 (Homo sapiens, UniProt Q16539)
Test: In Vitro Kinase Assay
Conditions: pH 7.4; 30 °C
Procedure: Inhibition of human recombinant active p38alpha MAP kinase was tested by measuring the incorporation of 33P from gamma-[33P] ATP into myelin basic protein (MBP). The assay was performed in a 96-well microtiter plate. The incorporated radioactivity was measured in a Packard Topcount microplate scintillation counter. The 50% inhibitory value was calculated by fitting the data to the equation: fractional activity = 1/[I]/IC50 + 1.

Mitogen-activated protein kinase 14, sequence (Q16539 whole entry): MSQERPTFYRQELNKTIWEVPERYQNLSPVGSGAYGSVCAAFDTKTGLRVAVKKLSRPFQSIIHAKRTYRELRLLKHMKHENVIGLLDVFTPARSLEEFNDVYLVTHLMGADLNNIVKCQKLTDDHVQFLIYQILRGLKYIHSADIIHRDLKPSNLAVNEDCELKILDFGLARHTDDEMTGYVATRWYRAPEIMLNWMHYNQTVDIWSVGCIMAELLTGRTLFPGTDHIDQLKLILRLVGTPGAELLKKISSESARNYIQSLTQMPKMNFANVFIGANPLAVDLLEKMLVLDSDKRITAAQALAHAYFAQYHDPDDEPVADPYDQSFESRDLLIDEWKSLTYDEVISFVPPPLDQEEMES

SMILES: CC(CO)Nc1cc(-c2[nH]c3cccnc3c2-c2ccc(F)cc2)ccn1 (stereo unspecified) [2-({4-[3-(4-fluorophenyl)-1H-pyrrolo[3,2-b]pyridin-2-yl]pyridin-2-yl}amino)propan-1-ol]
- IC50: 3 nM
